Values of other authors in patent US20050131071A1, “Orodispersible pharmaceutical composition of agomelatine” (priority 2003, published 2005).

Details: humans; oral route in relation to the parenteral route

bioavailability by the oral route: very low
SMILES: COc1ccc2cccc(CCNC(C)=O)c2c1 [agomelatine, N-[2-(7-methoxy-1-naphthyl)ethyl]acetamide]
